The record followed here is patent publication US12076342B2, “Method for generating progenitor t cells from stem and/or progenitor cells and use of same” (THE GOVERNING COUNCIL OF THE UNIVERSITY OF TORONTO, priority 2016, dated 2024).

The test system of assay [1] is CD34+ HSPCs derived from cord blood. In words: Fed-batch bioreactor expansion culture of human CD34+ HSPCs. The settings on record: 500 nM, 12 days of expansion, compared to control FB cultures. The format is cell-based. The method, then: Umbilical cord blood samples were collected from consenting donors according to ethically approved procedures at Mt. Sinai Hospital (Toronto, ON, Canada). Cells were red blood cell (RBC) depleted as previously described^10, using HetaSep (StemCell Technologies). CD34+ progenitor cells were selected with the EasySep system using a human CD34+ enrichment kit (StemCell Technologies), according to the manufacturer's protocol. Freshly isolated CD34+ cells were seeded at a density of 1×10^5 total cells/mL. Cells were seeded in StemSpan-ACF medium (StemCell Technologies), supplemented with 100 ng/mL Stem Cell Factor (SCF, R&D Systems or CellGenix), 100 ng/mL FMS-like Trysine Kinase 3 Ligand (Flt3L, R&D Systems or CellGenix), 50 ng/mL Thrombopoietin (TPO, R&D Systems or CellGenix), 2 mM GlutaMAX (GIBCO) and/or 500 nM UM729 small molecule. Cells were cultured for 12 days with minimal manual manipulation during the culture period, as previously described^11.
Cells were harvested from either fed-batch or fed-batch+UM729 at day 12 and sorted for CD34+ and CD34− populations. Sorted CD34+ and CD34− cells from both culture methods were seeded along with thawed unexpanded day 0 CD34+ HSPCs at 4000 cells/96-well coated overnight with 20 μg/mL DL4 and 2.3 μg/mL VCAM-1 in serum-free IMDM+BIT medium containing 100 ng/mL SCF, Tpo, Flt3L and IL-7. […]

Assay [2] relates to human umbilical cord blood-derived CD34+ HSPCs. The assay is described as follows: Human CD34+ HSPC progenitor T cell differentiation on coated plates. It is filed as cell-based. The settings on record: serum-free IMDM+BIT, 9 or 14 days; matrix proteins in conjunction with DL4. The method, then:
For human HSPC culture, umbilical cord blood samples were collected from consenting donors according to ethically approved procedures at Mount Sinai Hospital. CD34+ cells were isolated from the red blood cell (RBC)-lysed cord blood fraction using the EasySep™ Human CD34 Positive Selection Kit (Stemcell Technologies) according to the manufacturer's instructions. Flow cytometry was performed after every enrichment to ensure CD34 frequencies were greater than 95%. CD34+ HSPCs were cultured for 14 days on DL4 and VCAM-1 coated 96-well plates at higher seeding densities of 12,500 HSPCs/cm^2 (corresponding to 4000 cells/well). One complete medium exchange was performed at day 7 of culture and cells were returned to the same DL4 and VCAM-1 coated plates. For certain experiments, DL4-Fc was coated alone or with RetroNectin® (Takara Shuzo) or fibronectin (Sigma Aldrich) as described in the text. CD34+ cells were cultured in serum-free Iscove modified Dulbecco medium (Gibco) with 20% bovine serum albumin, insulin, and transferrin serum substitute (BIT; Stemcell Technologies), 1% GlutaMAX™ (Gibco) and 1 μg/mL low-density lipoproteins (Calbiochem). The medium was added at 50 μL/well supplemented with 100 ng/mL SCF (R&D Systems, Minneapolis, MN), 100 ng/mL Flt3L (R&D Systems), 100 ng/mL Tpo (R&D Systems) and 100 ng/mL IL-7 (R&D Systems).
Surface marker staining was performed with conjugated rat anti-mouse antibodies (BD Biosciences, San Jose, CA, Table 1). All samples were analyzed on a FACSCanto™ or FACS LSRFortessa™ flow cytometer (BD Biosciences). At day 7 of culture, cells were lifted off the plate with multiple HF rinses, stained at 1:400 dilution with antibodies against CD45, CD25, CD44, CD90, CD11 b and CD19 for 20 minutes on ice. […] Integrin expression was analyzed using antibodies against α4, β1, and β7 integrin subunits on Sca-1+cKit+ mouse HSPCs and CD34+ human umbilical blood cells. […] Flow data was analyzed and batch processed using FlowJo® software and further analyzed in Python (version 2.7.10).

Assay [3] concerns sorted sca1+ckit+ fetal-liver HSPCs. In words: Defined T cell differentiation assay on adsorbed ligand, flow cytometry. It is filed as cell-based, mouse. The method, then: FIG. 2a: Schematic for 2D coated DL4 assay, in which sorted E13.5 sca1+ckit+ fetal-liver HSPCs are seeded on coated DL4 ligand in standard 96-well flat bottom plates at 1000 cells/well density in 200 μl test media containing cytokines 25 ng/mL SCF, 5 ng/mL Flt3L and 1 ng/mL IL7; cells are re-fed on day 4 with fresh media containing cytokines; on day 7, cells are assayed for surface marker expression using flow cytometry.
Commercially available DL4-Fc was purchased and used for experiments from Sino Biologicals (Cedarlane Labs, Burlington, Ontario, Canada) or manufactured in-house as described below. DL4-Fc was diluted in chilled phosphate-buffered saline (PBS) at 10 μg/mL or […] and 50 μL/well was coated in standard tissue-culture 96-well plates overnight at 4° C. Wells were washed once with PBS prior to seeding cells to remove any unbound ligand from the wells. For certain experiments, wells were also coated overnight with 50 μL/well PBS containing DL4-Fc and VCAM-1-Fc (R&D) or fibronectin (Sigma) at concentrations described herein.
Sorted sca1+ckit+ HSPCs were cultured at 1000 cells/well (corresponding to 3.1×10^3 cells/cm^2) in DL4-coated 96-well plates in serum-free Iscove modified Dulbecco medium (Gibco, Rockville, MD) with 20% bovine serum albumin, insulin, and transferrin serum substitute (BIT; Stemcell Technologies), 1% GlutaMAX™ (Gibco) and 1 μg/mL low-density lipoproteins (Calbiochem, La Jolla, CA) [IMDM+BIT]. For positive control cultures, OP9 serum medium was used, composed of αMEM medium (Gibco) and 16% FBS (Hyclone™, GE Health). Serum-free αMEM+BIT medium was prepared exactly as IMDM+BIT medium except using αMEM (Gibco) as the base medium. OP9 serum medium, αMEM+BIT or IMDM+BIT serum free medium was added at 200 μL/well supplemented with 25 ng/mL Stem Cell Factor (SCF; R&D Systems, Minneapolis, MN), 5 ng/mL FMS-like Tyrosine Kinase 3 Ligand (Flt3L; R&D Systems) and 1 ng/mL Interleukin-7 (IL-7; R&D Systems) with a 50% medium exchange step at day 4 containing 2-fold concentrated cytokines as described previously^9. Design of Experiment (DOE) in silico modeling was performed using Design-Expert® (v10) using response surface method to investigate the combinatorial desirability of different concentrations of SCF, Flt3L and IL-7 for maximizing DN3 T-cell yield and minimizing the volume of IMDM+BIT medium. After DOE optimization, IMDM+BIT serum-free medium was added at 50 μL/well supplemented with 50 ng/mL SCF (R&D Systems), 10 ng/mL Flt3L (R&D Systems) and 10 ng/mL IL-7 (R&D Systems) unless described otherwise in the text with no medium exchange for the length of the assay. For the candidate factor screening in serum-free IMDM+BIT medium, the following proteins or small molecules were used at the concentrations listed: JAK inhibitor I (50 nM; EMD Millipore), IL-11 (10, 50, and 100 ng/mL; R&D Systems), IL-6 (10, 50, and 100 ng/mL; R&D Systems), IL-6R (100 ng/mL; R&D Systems), Ccl25 (1.5 μg/mL; R&D Systems), IL-7 (50, 100, and 200 ng/mL; R&D Systems), SDF1α (Cxcl12; 200 ng/mL; R&D Systems), and Leukemia Inhibitory Factor (LIF; 0.1, 1, and 10 ng/mL; EMD Millipore).
Surface marker staining was performed with conjugated rat anti-mouse antibodies (BD Biosciences, San Jose, CA, Table 1). All samples were analyzed on a FACSCanto™ or FACS LSRFortessa™ flow cytometer (BD Biosciences). At day 7 of culture, cells were lifted off the plate with multiple HF rinses, stained at 1:400 dilution with antibodies against CD45, CD25, CD44, CD90, CD11 b and CD19 for 20 minutes on ice. Human progenitor T-cells were stained at 1:100 dilution with antibodies against CD34, CD7, CD5 and CD45RA. Integrin expression was analyzed using antibodies against α4, β1, and β7 integrin subunits on Sca-1+cKit+ mouse HSPCs and CD34+ human umbilical blood cells. […]

In assay [4] the test system is Notch pathway (CBF1-Firefly). In words: NIH3T3 luciferase assay for measuring Notch activation. The format is cell-based. On the procedure: NIH3T3 cells were seeded at 125,000 cells/well in a 6-well plate on the previous day and transiently transfected overnight with Notch1, CBF1-Firefly and constitutively active Renilla plasmids using FuGENE® HD transfection reagent (Promega Corporation, Madison WI USA) as per the manufacturer's instructions. Transfected NIH3T3 cells were either seeded on DL4-coated plates or in DL4-conjugated MC for 24 hours prior to measuring Firefly activation normalized to Renilla expression using the dual-luciferase reporter assay system (Promega Corporation, Madison WI USA) according to the manufacturer's instructions.

As for `COC(=O)c1ccc2c(c1)[nH]c1ncnc(NCCCN3CCCCC3)c12` [UM-729], in assay [1], the “CD34− yield” value is on record as “minimized CD34− yield” and the “overall CD34+ yield” value is on record as “enhanced overall CD34+ yield”.

Consider fibronectin [reference compound], for which the “generation of later stage progenitor T cells from CD34+ HSPCs” value in assay [2] is listed as “incapable of differentiating CD7+CD34+ progenitors further along the T cell lineage”. For “soluble DL4: DL4 ligand supplied in soluble rather than adsorbed form”, the “DN3 cell generation in soluble ligand” value in assay [3] (10 μg/mL soluble DL4, day 7) is recorded as “no DN3 cells were generated”. In addition, in assay [3] (mixture of adsorbed and soluble DL4, day 7), the “effect of soluble ligand on induction by adsorbed DL4” value is listed as “completely inhibited the inductive effects of adsorbed DL4 ligand”. Further, the “Notch1 intracellular domain translocation (CBF1-luciferase)” value in assay [4] (soluble DL4 added, cells on immobilized DL4) is recorded as “actively inhibits translocation of the intracellular domain of Notch1 receptor”.

B1: IL-7: Interleukin-7 cytokine (R&D Systems) (protein, UniProt P13232 26-177, looked up)
Interleukin-7: DCDIEGKDGKQYESVLMVSIDQLLDSMKEIGSNCLNNEFNFFKRHICDANKEGMFLFRAARKLRQFLKMNSTGDFDLHLLKVSEGTTILLNCTGQVKGRKPAALGEAQPTKSLEENKSLKEQKKLNDLCFLKRLLQEIKTCWNKILMGTKEH
Turning to B1, the “DN3 yield with raised IL-7 concentration” value in assay [3] (IL-7 from 2 to 10 ng/mL, 50-10-10 no-feed condition vs 25-5-1 re-feed control) is on record as “significantly higher yields of T lineage-committed DN3 cells than the control”.

B2: DL1: Delta-like-1 (DL1), alternate Notch-1 ligand (protein, UniProt O00548 18-723, looked up)
Delta-like protein 1: QVWSSGVFELKLQEFVNKKGLLGNRNCCRGGAGPPPCACRTFFRVCLKHYQASVSPEPPCTYGSAVTPVLGVDSFSLPDGGGADSAFSNPIRFPFGFTWPGTFSLIIEALHTDSPDDLATENPERLISRLATQRHLTVGEEWSQDLHSSGRTDLKYSYRFVCDEHYYGEGCSVFCRPRDDAFGHFTCGERGEKVCNPGWKGPYCTEPICLPGCDEQHGFCDKPGECKCRVGWQGRYCDECIRYPGCLHGTCQQPWQCNCQEGWGGLFCNQDLNYCTHHKPCKNGATCTNTGQGSYTCSCRPGYTGATCELGIDECDPSPCKNGGSCTDLENSYSCTCPPGFYGKICELSAMTCADGPCFNGGRCSDSPDGGYSCRCPVGYSGFNCEKKIDYCSSSPCSNGAKCVDLGDAYLCRCQAGFSGRHCDDNVDDCASSPCANGGTCRDGVNDFSCTCPPGYTGRNCSAPVSRCEHAPCHNGATCHERGHRYVCECARGYGGPNCQFLLPELPPGPAVVDLTEKLEGQGGPFPWVAVCAGVILVLMLLLGCAAVVVCVRLRLQKHRPPADPCRGETETMNNLANCQREKDISVSIIGATQIKNTNKKADFHGDHSADKNGFKARYPAVDYNLVQDLKGDDTAVRDAHSKRDTKCQPQGSSGEEKGTPTTLRGGEASERKRPDSGCSTSKDTKYQSVYVISEEKDECVIATEV
As for B2, in assay [3] (same range of coating concentrations as DL4, day 7), the “generation of DN2/DN3 progenitor T cells on adsorbed ligand” value was “incapable of generating DN2 or DN3 progenitor T cells”. Also, the “Notch pathway activation (CBF-1 Firefly normalized to Renilla)” value in assay [4] (24 hours, DL1-Fc at 10 and 20 μg/mL) is reported as “unable to sustain progenitor T cell production or activate the Notch pathway at similar coating concentrations as DL4 ligand”.
